In the assay the target is protein disulfide isomerase (PDI) (Homo sapiens, UniProt P07237). As to the kind of experiment: turbidimetric insulin disulfide reduction assay with recombinant human PDI. Type of assay: biochemical.

Consider 1 substance from article PMC6278960 (Haematologica, 2018).

protein disulfide isomerase (PDI), sequence (P07237 18-508): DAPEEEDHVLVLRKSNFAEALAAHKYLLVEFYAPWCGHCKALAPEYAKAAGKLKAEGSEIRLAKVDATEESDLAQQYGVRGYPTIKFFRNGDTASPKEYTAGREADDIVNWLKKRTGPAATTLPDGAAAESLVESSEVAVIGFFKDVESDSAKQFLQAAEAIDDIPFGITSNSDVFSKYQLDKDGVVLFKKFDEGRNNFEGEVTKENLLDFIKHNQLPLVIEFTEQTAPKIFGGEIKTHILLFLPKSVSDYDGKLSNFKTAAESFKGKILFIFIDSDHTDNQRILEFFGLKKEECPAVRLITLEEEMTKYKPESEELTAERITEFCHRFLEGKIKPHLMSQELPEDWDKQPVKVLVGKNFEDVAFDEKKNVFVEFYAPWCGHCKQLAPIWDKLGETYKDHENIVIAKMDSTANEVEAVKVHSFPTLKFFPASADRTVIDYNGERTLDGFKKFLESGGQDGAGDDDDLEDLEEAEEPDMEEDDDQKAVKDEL

Take SK053: the IC50 (in general, the point on the concentration scale where inhibition reaches its midpoint) amounted to 9.98 µM.
